Experiments:
[1] = tested on: mAb Mac2-158; test: Epitope mapping of mAb Mac2-158 with circular peptides of human CD163 SRCR domain 1; type: binding; details: circular peptides aligned to SRCR domain 1 of human CD163
Description: As a result, the following sequences (as well as motifs derived therefrom) are highly suitable epitopes anti-CD163 antibodies and fragments thereof used as SADC biopolymer scaffold: […]

[2] = tested on: IgG from human donors (anti-AAV antibodies); test: Screen for anti-AAV antibodies in human sera, 2452 linear 15-amino-acid AAV peptides on microarrays (Table 1); type: binding; set-up: key to group I: X: the deduplicated aggregate of the respective top 10 peptide hits for each donor was compiled and designated as group I; key to group II: X: the deduplicated aggregate of the respective top 25 peptide hits for each donor was compiled and designated as group II; key to group III: X: the deduplicated aggregate of the respective top 50 peptide hits for each donor was compiled and designated as group III; details: human donor IgG binding to linear 15-amino-acid AAV peptides on microarray, fluorescence; for group I: membership in deduplicated aggregate of top 10 peptide hits for each donor; for group II: membership in deduplicated aggregate of top 25 peptide hits for each donor; for group III: membership in deduplicated aggregate of top 50 peptide hits for each donor
In short: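 Protein G-purified IgG from human donor blood incubated with microarrays of 2452 linear 15-mer peptides from 16 AAVs; binding read by fluorescence. Background-subtracted signals ranked per donor, with top 10, 25, 50 and 250 hits pooled and deduplicated into groups I-IV.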

[3] = tested on: IgG from human donors (anti-measles virus antibodies); type: binding; set-up: key: X: The peptides belonging to the Top 10% hits
[4] = tested on: mAb 9C12; test: Epitope mapping of monoclonal antibody 9C12 against cyclic peptides of the AdV hexon protein (peptide microarray); type: binding, mice; details: cyclic 7mer, 10mer, 13mer peptides of AdV hexon
Protocol: Monoclonal antibody 9C12 (alias mAB TC31-9C12·C9-s) was generated by immunizing mice with the hexon protein (Uniprot ID: P04133 which corresponds to GenBank: BAG48782.1). […] In brief, diluted antibody was incubated with GFP-expressing replication-defective Ad vector and subsequently added to Hela cells followed by fluorescence readout. […] The binding signal of mAb 9C12 to the peptides yielded several candidates that could be aligned and clustered against the protein. An epitopic cluster region of 20 amino acids was identified from which paratope binding peptides can be preferentially derived. Below are the aligments of the corresponding peptide hits from this screen. […] Cyclic peptides were selected out of up to 50 top binders in this experiment.

| Substance | peptide number among the top 20 peptide hits of mAb Mac2-158 [1] | group I [2] | group II [2] | group III [2] | top 10% [3] | ranked binding signal obtained from the microarray (01 binds strongest) [4] |
| --- | --- | --- | --- | --- | --- | --- |
| QLKAGDNPYLRYNH (REGION 1..14: note = peptide derived from viral capsid protein) [SEQ ID NO: 1913] | 13 | X | X | X |  |  |
| LEDNLSEGIREWWD (REGION 1..14: note = peptide derived from viral capsid protein) [SEQ ID NO: 1898] | 04 | X | X | X |  |  |
| PEIQYTSNYNKSVN (REGION 1..14: note = peptide derived from viral capsid protein) [SEQ ID NO: 1921] |  | X | X | X | X |  |
| SESVPDPQPIGEPP (REGION 1..14: note = peptide derived from viral capsid protein) [SEQ ID NO: 1899] | 09 | X | X | X | X |  |
| KTAPGKKRPVDQSP (REGION 1..14: note = peptide derived from viral capsid protein) [SEQ ID NO: 1920] |  | X | X | X | X |  |
| 365 (CSGRVEVKVQEEW) [compound 365] | 07 |  |  |  |  |  |
| PQYGYLTLNNGSQA (REGION 1..14: note = peptide derived from viral capsid protein) [SEQ ID NO: 1901] | 14 | X | X | X |  |  |
| GETTRPATAAQTQV [SEQ ID NO: 1906] | 01 | X | X | X |  |  |
| TRPATAPQIGTVNS [SEQ ID NO: 1905] |  | X | X | X | X |  |
| FQERLKEDTSFGGN (REGION 1..14: note = peptide derived from viral capsid protein) [SEQ ID NO: 1981] |  | X | X | X |  | 14 |
| EEEIRTTNPVATEQ (REGION 1..14: note = peptide derived from viral capsid protein) [SEQ ID NO: 1979] |  | X | X | X |  | 12 |
| GADGVGNSSGNWHC (REGION 1..14: note = peptide derived from viral capsid protein) [SEQ ID NO: 1982] |  | X | X | X |  | 15 |
| STNLQRGNLALGET [SEQ ID NO: 1894] |  | X | X | X | X |  |
| ANNLTSTVQIFADS (REGION 1..14: note = peptide derived from viral capsid protein) [SEQ ID NO: 1895] |  | X | X | X | X |  |
| LIKNTPVPADPPTT (REGION 1..14: note = peptide derived from viral capsid protein) [SEQ ID NO: 1900] | 12 | X | X | X |  |  |
| TQGTQQLLFSQAGP [SEQ ID NO: 1974] |  | X | X | X |  | 07 |

| Substance | peptide number among the top 20 peptide hits of mAb Mac2-158 [1] | group I [2] | group II [2] | group III [2] | top 10% [3] | ranked binding signal obtained from the microarray (01 binds strongest) [4] |
| --- | --- | --- | --- | --- | --- | --- |
| GKKRPVDQSPQEPD (REGION 1..14: note = peptide derived from viral capsid protein) [SEQ ID NO: 1919] |  | X | X | X | X |  |
| DSESVPDPQPLGEP (REGION 1..14: note = peptide derived from viral capsid protein) [SEQ ID NO: 1978] |  | X | X | X |  | 11 |
| SFITQYSTGQVSVE (REGION 1..14: note = peptide derived from viral capsid protein) [SEQ ID NO: 1914] | 17 | X | X | X |  |  |
| GQTGDSESVPDPQP [SEQ ID NO: 1911] | 08 | X | X | X |  |  |
| FGKQGAGRDNVDYS [SEQ ID NO: 1915] |  | X | X | X | X |  |
| YDQQLKAGDNPYLK (REGION 1..14: note = peptide derived from viral capsid protein) [SEQ ID NO: 1924] |  | X | X | X | X |  |
| FNIQVKEVTTNDGV (REGION 1..14: note = peptide derived from viral capsid protein) [SEQ ID NO: 1910] | 06 | X | X | X |  |  |
| KSVNVDFTVDTNGV (REGION 1..14: note = peptide derived from viral capsid protein) [SEQ ID NO: 1987] |  | X | X | X |  | 20 |
| YLYYLNRTQGTTSG [SEQ ID NO: 1925] |  | X | X | X | X |  |
| KKRPVDQSPQEPDS (REGION 1..14: note = peptide derived from viral capsid protein) [SEQ ID NO: 1985] |  | X | X | X |  | 18 |
| TIANNLTSTIQVFT (REGION 1..14: note = peptide derived from viral capsid protein) [SEQ ID NO: 1968] |  | X | X | X |  | 01 |
| LSRTQSTGGTQGTQ [SEQ ID NO: 1973] |  | X | X | X |  | 06 |
| VTQNEGTKTIANNL [SEQ ID NO: 1970] |  | X | X | X |  | 03 |
| IFNIQVKEVTTSNG (REGION 1..14: note = peptide derived from viral capsid protein) [SEQ ID NO: 1907] | 02 | X | X | X |  |  |
| GNGLDKGEPVNAAD [SEQ ID NO: 1984] |  | X | X | X |  | 17 |

Reference: patent publication US20250213707A1, “COMPOUND FOR INCREASING EFFICACY OF ONCOLYTIC VIRUSES” (ABLEVIA BIOTECH GMBH, priority 2022, published 2025)
